Test results reported in article PMC2756456 (Clinical cancer research : an official journal of the …, 2009).

Biological target: myosin light chain kinase (MLCK) (Homo sapiens, UniProt Q15746)
Assay: radiometric [γ-33P]ATP kinase assay with peptide substrate KKLNRTLSFAEPG
Type: biochemical

Sequence of myosin light chain kinase (MLCK) (Q15746 whole entry): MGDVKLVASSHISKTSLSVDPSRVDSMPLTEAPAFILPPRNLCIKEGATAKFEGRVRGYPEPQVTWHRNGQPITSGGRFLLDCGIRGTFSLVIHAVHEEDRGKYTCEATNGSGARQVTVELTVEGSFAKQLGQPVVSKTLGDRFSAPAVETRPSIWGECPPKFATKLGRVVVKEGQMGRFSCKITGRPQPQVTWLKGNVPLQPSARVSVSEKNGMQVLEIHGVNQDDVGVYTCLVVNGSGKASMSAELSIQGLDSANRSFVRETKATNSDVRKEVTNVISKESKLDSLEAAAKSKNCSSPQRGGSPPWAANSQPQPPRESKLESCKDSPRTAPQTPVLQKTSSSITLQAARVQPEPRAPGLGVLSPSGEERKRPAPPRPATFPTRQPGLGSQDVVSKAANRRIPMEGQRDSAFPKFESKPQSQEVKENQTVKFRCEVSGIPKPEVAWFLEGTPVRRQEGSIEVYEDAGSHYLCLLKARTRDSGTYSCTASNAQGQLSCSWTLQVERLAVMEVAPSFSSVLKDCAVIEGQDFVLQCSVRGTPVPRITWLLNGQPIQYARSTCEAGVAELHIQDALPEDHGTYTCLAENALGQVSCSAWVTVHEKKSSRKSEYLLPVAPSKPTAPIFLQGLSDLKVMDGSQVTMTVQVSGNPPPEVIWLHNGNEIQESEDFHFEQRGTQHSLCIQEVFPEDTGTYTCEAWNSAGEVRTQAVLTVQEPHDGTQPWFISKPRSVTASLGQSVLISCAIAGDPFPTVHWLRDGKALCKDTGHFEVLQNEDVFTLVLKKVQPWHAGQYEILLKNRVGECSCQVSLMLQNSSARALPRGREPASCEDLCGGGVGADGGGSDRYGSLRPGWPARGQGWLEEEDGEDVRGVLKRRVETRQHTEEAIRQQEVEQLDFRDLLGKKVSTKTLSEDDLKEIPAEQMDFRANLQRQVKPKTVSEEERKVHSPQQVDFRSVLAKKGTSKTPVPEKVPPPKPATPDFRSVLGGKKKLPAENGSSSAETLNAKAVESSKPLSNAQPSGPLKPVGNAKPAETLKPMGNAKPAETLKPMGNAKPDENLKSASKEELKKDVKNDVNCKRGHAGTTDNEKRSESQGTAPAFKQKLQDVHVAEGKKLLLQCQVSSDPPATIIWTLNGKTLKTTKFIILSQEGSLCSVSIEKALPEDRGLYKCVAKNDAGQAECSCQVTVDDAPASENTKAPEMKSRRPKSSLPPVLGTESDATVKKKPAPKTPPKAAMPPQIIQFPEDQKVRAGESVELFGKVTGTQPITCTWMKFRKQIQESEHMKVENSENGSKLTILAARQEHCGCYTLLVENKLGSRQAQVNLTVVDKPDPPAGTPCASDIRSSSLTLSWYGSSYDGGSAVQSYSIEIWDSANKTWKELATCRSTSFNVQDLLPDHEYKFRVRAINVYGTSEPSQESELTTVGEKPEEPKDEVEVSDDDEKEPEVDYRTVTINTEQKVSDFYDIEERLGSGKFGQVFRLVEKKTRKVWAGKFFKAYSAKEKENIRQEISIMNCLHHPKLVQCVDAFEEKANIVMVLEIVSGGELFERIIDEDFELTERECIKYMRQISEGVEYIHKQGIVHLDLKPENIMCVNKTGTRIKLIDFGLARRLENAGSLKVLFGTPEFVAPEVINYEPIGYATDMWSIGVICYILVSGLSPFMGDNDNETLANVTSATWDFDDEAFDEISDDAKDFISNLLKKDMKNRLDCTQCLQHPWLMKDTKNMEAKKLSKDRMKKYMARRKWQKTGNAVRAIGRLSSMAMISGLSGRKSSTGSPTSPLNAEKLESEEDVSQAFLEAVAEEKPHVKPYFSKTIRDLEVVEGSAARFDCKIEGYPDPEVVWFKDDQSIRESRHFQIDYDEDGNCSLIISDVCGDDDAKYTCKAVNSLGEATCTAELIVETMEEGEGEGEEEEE

CNCc1ccc(-c2[nH]c3cc(F)cc4c3c2CCNC4=O)cc1 [AG014699]
IC50: 55 µM
